Measurements taken from PubChem BioAssay (NCI).
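Compound exposure: 48 hours, 5 concentrations, 96-well plates. The concentration for 50% growth inhibition is given as GI50. Definition used: TGI = concentration required for complete inhibition of growth.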

Legend:
Experiment in all cases: DTP human tumour cell line panel, 48 h
ACHN renal = test system: ACHN renal
CCRF-CEM leukemia = test system: CCRF-CEM leukemia
DLD-1 colon = test system: DLD-1 colon
DMS 273 small cell lung = test system: DMS 273 small cell lung
IGROV1 ovarian = test system: IGROV1 ovarian
K-562 leukemia = test system: K-562 leukemia
KM12 colon = test system: KM12 colon
KM20L2 colon = test system: KM20L2 colon
LXFL 529 NSCLC = test system: LXFL 529 NSCLC
M14 melanoma = test system: M14 melanoma
SK-OV-3 ovarian = test system: SK-OV-3 ovarian
SNB-78 CNS = test system: SNB-78 CNS
UACC-257 melanoma = test system: UACC-257 melanoma
XF 498 CNS = test system: XF 498 CNS
MDA-MB-231 breast = test system: MDA-MB-231 breast
PC-3 prostate = test system: PC-3 prostate
T-47D breast = test system: T-47D breast

Compound | TGI (ACHN renal) | TGI (CCRF-CEM leukemia) | TGI (DLD-1 colon) | TGI (DMS 273 small cell lung) | TGI (IGROV1 ovarian) | TGI (K-562 leukemia) | TGI (KM12 colon) | TGI (KM20L2 colon) | TGI (LXFL 529 NSCLC) | TGI (M14 melanoma) | TGI (SK-OV-3 ovarian) | TGI (SNB-78 CNS) | TGI (UACC-257 melanoma) | TGI (XF 498 CNS) | GI50 (KM12 colon) | GI50 (KM20L2 colon) | TGI (MDA-MB-231 breast) | TGI (PC-3 prostate) | TGI (T-47D breast) | GI50 (DMS 273 small cell lung)
Cc1ccc(CC(C)N)cc1 (centres undefined) | > 100 µM | > 100 µM | > 100 µM | > 100 µM | > 100 µM | > 100 µM | > 100 µM | > 100 µM | > 100 µM | > 100 µM | > 100 µM | > 100 µM | > 100 µM | – | – | – | – | – | – | –
COC(=O)CC1NC(=O)C1C1(C)OCCO1 (centres undefined) | > 100 µM | – | > 100 µM | > 100 µM | > 100 µM | – | – | > 100 µM | > 100 µM | > 100 µM | – | – | > 100 µM | > 100 µM | – | – | – | – | – | –
O=C(N/N=C/c1cc(Cl)cc(Cl)c1O)c1ccccc1O | 5.57 µM | > 100 µM | – | – | 19.2 µM | > 100 µM | 34.7 µM | – | – | 4.07 µM | 15.3 µM | – | 14.6 µM | – | 3.72 µM | 4.85 µM | – | – | – | –
CCOC(=O)CSc1nnc(C(Sc2nc(-c3ccccc3)c(-c3ccccc3)[nH]2)C(C)C)n1-c1ccccc1 (centres undefined) | > 31.6 µM | 28.4 µM | > 10 µM | > 10 µM | > 10 µM | > 100 µM | > 31.6 µM | > 10 µM | > 10 µM | 20.1 µM | > 10 µM | > 10 µM | 19.3 µM | – | – | – | 64.1 µM | > 100 µM | > 100 µM | –
COc1cc2c(cc1OC)C1(c3ccc(Cl)cc3)ON=C(c3ccccc3)N1CS2 (centres undefined) | > 100 µM | > 100 µM | > 100 µM | > 100 µM | > 100 µM | > 100 µM | > 100 µM | > 100 µM | > 100 µM | > 100 µM | > 100 µM | > 100 µM | > 100 µM | – | – | – | – | – | – | –
CCN(c1cccc(NC(=S)Nc2ccccc2N(CC)c2cc(-c3ccccc3)no2)c1)c1cc(-c2ccccc2)no1 | > 100 µM | > 100 µM | – | – | > 100 µM | > 100 µM | > 100 µM | – | – | > 100 µM | > 100 µM | – | > 100 µM | – | – | – | > 100 µM | > 100 µM | > 100 µM | –
Fc1ccccc1C1SCc2nc3cc4ccccc4cc3n21 (centres undefined) | > 100 µM | > 100 µM | – | – | > 100 µM | > 100 µM | > 100 µM | – | – | > 100 µM | > 100 µM | – | > 100 µM | – | – | – | > 100 µM | > 100 µM | > 100 µM | –
CCCc1ccc(NCc2cc(OC)c(OC)c(OC)c2)cc1 | > 100 µM | 49 µM | 48.1 µM | 31.8 µM | > 100 µM | 51.6 µM | 55.2 µM | > 100 µM | 40.5 µM | – | 66.3 µM | > 100 µM | 74.7 µM | 52.8 µM | – | – | – | – | – | 16.2 µM
CC(NC(C)(C)C)C(=O)c1cccc(Cl)c1 (centres undefined) | > 100 µM | > 100 µM | > 100 µM | > 100 µM | > 100 µM | > 100 µM | > 100 µM | > 100 µM | > 100 µM | > 100 µM | > 100 µM | – | > 100 µM | > 100 µM | – | – | – | – | – | –
Cc1ccc(N=Nc2c(O)c(C(=O)Nc3ccccc3)cc3ccccc23)c([N+](=O)[O-])c1 | > 100 µM | > 100 µM | – | – | > 100 µM | > 100 µM | > 100 µM | – | – | > 100 µM | > 100 µM | – | > 100 µM | – | – | – | > 100 µM | > 100 µM | > 100 µM | –
COc1ccc2oc(=N)c(C(=O)Nc3ccccn3)cc2c1 | > 100 µM | > 100 µM | – | – | > 100 µM | > 100 µM | > 100 µM | – | – | > 100 µM | > 100 µM | – | > 100 µM | – | – | – | > 100 µM | > 100 µM | > 100 µM | –
CCOc1cc(NC(C)=O)ccc1C(=O)NN1C(=O)C(Cl)C1c1ccco1 (centres undefined) | 29.1 µM | 49.1 µM | – | – | 28.8 µM | 51.3 µM | 33.6 µM | – | – | 36.8 µM | 38.2 µM | – | 34.2 µM | – | – | – | 31.1 µM | 32.3 µM | 40.3 µM | –
C/C(=C/CC[C@]1(CO)CC[C@]2(CO)[C@H](CC[C@@H]3[C@@]4(C)CC[C@H](OC5OCC(O)C(O)C5OC5OC(CO)C(O)C(O)C5O)C(C)(C)[C@@H]4CC[C@]32C)[C@H]1O)CO (some centres undefined) | > 100 µM | > 100 µM | – | – | > 100 µM | > 100 µM | > 100 µM | – | – | > 100 µM | > 100 µM | – | > 100 µM | – | – | – | > 100 µM | > 100 µM | > 100 µM | –
Nc1ccc(C(=O)NN2C(=O)C(Cl)C2c2ccccc2)cc1 (centres undefined) | > 100 µM | > 100 µM | > 100 µM | > 100 µM | > 100 µM | > 100 µM | > 100 µM | > 100 µM | > 100 µM | > 100 µM | > 100 µM | > 100 µM | > 100 µM | > 100 µM | – | – | – | – | – | –
CC(C)=C/C=C1/CS(=O)(=O)C=C1C | > 100 µM | > 100 µM | – | – | > 100 µM | > 100 µM | > 100 µM | – | – | > 100 µM | > 100 µM | – | > 100 µM | – | – | – | > 100 µM | > 100 µM | > 100 µM | –
O=C(Cc1ccccc1)NN1C(=O)C(Cl)C1c1ccccc1O (centres undefined) | > 100 µM | > 100 µM | > 100 µM | > 100 µM | > 100 µM | > 100 µM | – | > 100 µM | > 100 µM | 30.9 µM | > 100 µM | > 100 µM | 71.5 µM | > 100 µM | – | – | – | – | – | –
COc1cc(C(c2ccc3c(c2)OCO3)N2C(=O)CCC2C(=O)O)cc(OC)c1OC (centres undefined) | > 100 µM | > 100 µM | – | – | > 100 µM | > 100 µM | > 100 µM | – | – | > 100 µM | > 100 µM | – | > 100 µM | – | – | – | > 100 µM | > 100 µM | > 100 µM | –
N#C/C(=C\c1c[nH]c2ccccc12)C(=O)c1ccc(O)c(O)c1 | > 94.3 µM | > 36.2 µM | > 100 µM | > 100 µM | > 89.4 µM | > 67 µM | > 100 µM | > 100 µM | > 100 µM | > 100 µM | > 100 µM | – | > 100 µM | > 100 µM | – | – | – | > 100 µM | > 100 µM | –
Cc1nc(-c2ccc(N=Cc3ccc(N(CCOS(C)(=O)=O)CCOS(C)(=O)=O)cc3C)cc2)cs1 | 19.2 µM | > 100 µM | – | – | > 100 µM | > 100 µM | > 100 µM | – | – | > 100 µM | > 100 µM | – | > 100 µM | – | – | – | > 100 µM | > 100 µM | 90.2 µM | –
